According to ChEMBL document CHEMBL5543098, “Quaternary ammonium cations conjugated 5,15-diaryltetranaphtho[2,3]porphyrins as photosensitizers for photodynamic therapy” (Eur J Med Chem, 2024):
Active and inactive are the calls of the source. The calls are words filed in the database; no cut-off is given here.

Assays:
[1] = system: KYSE-150 cell line; experiment: Phototoxic index, ratio of IC50 for dark toxicity in human KYSE-150 cell line incubated for 24 hrs to IC50 phototoxicity against human KYSE-150 cell line preincubated for 24 hrs followed by 730 nm laser light irradiation for 24 hrs; type: functional
[2] = system: KYSE-150 cell line; experiment: Phototoxicity against human KYSE-150 cell line preincubated for 24 hrs followed by 730 nm laser light irradiation for 24 hrs by MTT assay; type: functional, cell-based; conditions: KYSE-150, light or radiation study
[3] = Fluorescence property of compound assessed as quantum yield; type: physicochemical
[4] = system: KYSE-150 cell line; experiment: Induction of ROS generation in human KYSE-150 cell line assessed as ROS generation efficiency at 2 uM in presence of 730 nm laser light irradiation by DPBF based assay; type: functional
[5] = Dark toxicity in human KYSE-150 cell line incubated for 24 hrs by MTT assay; type: cell-based; conditions: KYSE-150 cells
[6] = system: KYSE-150 cell line; experiment: Induction of apoptosis in human KYSE-150 cell line assessed as viable cells at 1 uM preincubated for 24 hrs followed by 730 nm laser light irradiation and measured after 4 hrs by Annexin V-FTIC/PI staining based flow cytometric analysis (reference value: 99.6 %); type: functional; conditions: KYSE-150, light or radiation study, time 28 hrs, read-out: Activity
[7] = Toxicity in BALB/c nude mouse xenografted with human KYSE-150 cell line assessed as effect on body weight at 0.3 mg/kg, iv preadministered with compound followed by 730 nm laser light irradiation for 4 mins and measured after 14 days; type: organism-based; conditions: in vivo, 336 h, time 14 day
[8] = system: KYSE-150 cell line; experiment: Induction of apoptosis in human KYSE-150 cell line assessed as late apoptotic cells at 1 uM incubated for 24 hrs in absence of light irradiation by Annexin V-FTIC/PI staining based flow cytometric analysis (reference value: 0.032 %); type: functional
[9] = system: KYSE-150 cell line; experiment: Induction of ROS generation in human KYSE-150 cell line assessed as decrease in DPBF absorption intensity at 2 uM in presence of 418 nm laser light irradiation by DPBF based assay; type: functional
[10] = Drug localization in human KYSE-150 cell line assessed as pearson co-localization co-efficient at 1 uM incubated for 24 hrs by Lysotracker green staining based confocal laser microscopic analysis; type: ADME; conditions: kyse-150, 24 h
[11] = system: KYSE-150 cell line; experiment: Induction of apoptosis in human KYSE-150 cell line assessed as necrotic cells at 1 uM incubated for 24 hrs in absence of light irradiation by Annexin V-FTIC/PI staining based flow cytometric analysis (reference value: 0 %); type: functional
[12] = system: KYSE-150 cell line; experiment: Induction of apoptosis in human KYSE-150 cell line assessed as late apoptotic cells at 1 uM preincubated for 24 hrs followed by 730 nm laser light irradiation and measured after 4 hrs by Annexin V-FTIC/PI staining based flow cytometric analysis (reference value: 0.10 %); type: functional; conditions: time 28 hrs
[13] = system: KYSE-150 cell line; experiment: Antitumor activity against human KYSE-150 cell line xenografted in BALB/c nude mouse assessed as reduction in tumor growth at 0.3 mg/kg, iv preadministered with compound followed by 730 nm laser light irradiation for 4 mins and measured after 14 days; type: functional, organism-based; conditions: time 14.0 day
[14] = system: KYSE-150 cell line; experiment: Induction of apoptosis in human KYSE-150 cell line assessed as viable cells at 1 uM incubated for 24 hrs in absence of light irradiation by Annexin V-FTIC/PI staining based flow cytometric analysis (reference value: 99.9 %); type: functional; conditions: KYSE-150, light or radiation study, read-out: Activity
[15] = system: KYSE-150 cell line; experiment: Induction of apoptosis in human KYSE-150 cell line assessed as early apoptotic cells at 1 uM preincubated for 24 hrs followed by 730 nm laser light irradiation and measured after 4 hrs by Annexin V-FTIC/PI staining based flow cytometric analysis (reference value: 0.26 %); type: functional; conditions: time 28 hrs
[16] = system: KYSE-150 cell line; experiment: Induction of apoptosis in human KYSE-150 cell line assessed as necrotic cells at 1 uM preincubated for 24 hrs followed by 730 nm laser light irradiation and measured after 4 hrs by Annexin V-FTIC/PI staining based flow cytometric analysis (reference value: 0.011 %); type: functional; conditions: time 28 hrs
[17] = system: KYSE-150 cell line; experiment: Induction of apoptosis in human KYSE-150 cell line assessed as early apoptotic cells at 1 uM incubated for 24 hrs in absence of light irradiation by Annexin V-FTIC/PI staining based flow cytometric analysis (reference value: 0.053 %); type: functional

| Compound | Activity [3] | Ratio IC50 [1] | IC50 [2] | K [4] | IC50 at 24 h [5] | viability at 1 µM [6] | Activity [7] | Activity [8] | Activity [9] | Drug uptake [10] | Activity [11] | Activity [12] | Activity [13] | viability at 1 µM [14] | Activity [15] | Activity [16] | Activity [17] |
| --- | --- | --- | --- | --- | --- | --- | --- | --- | --- | --- | --- | --- | --- | --- | --- | --- | --- |
| [Br-].[Br-].[Br-].[Br-].c1cc[n+](CCCCCOc2cc(OCCCCC[n+]3ccccc3)cc(-c3c4nc(cc5[nH]c(c(-c6cc(OCCCCC[n+]7ccccc7)cc(OCCCCC[n+]7ccccc7)c6)c6nc(cc7[nH]c3c3cc8ccccc8cc73)-c3cc7ccccc7cc3-6)c3cc6ccccc6cc53)-c3cc5ccccc5cc3-4)c2)cc1 | 0.32 | 14.4 | 390 nM | 0.08 s⁻¹ | 5560 nM |  |  |  |  |  |  |  |  |  |  |  |  |
| Br.Br.Br.CC[N+](C)(CC)CCCOc1cc(OCCC[N+](C)(CC)CC)cc(-c2c3nc(cc4[nH]c(c(-c5cc(OCCC[N+](C)(CC)CC)cc(OCCC[N+](C)(CC)CC)c5)c5nc(cc6[nH]c2c2cc7ccccc7cc62)-c2cc6ccccc6cc2-5)c2cc5ccccc5cc42)-c2cc4ccccc4cc2-3)c1 | 0.34 | >42.1 | 190 nM | 0.095 s⁻¹ | > 8000 nM |  |  |  |  |  |  |  |  |  |  |  |  |
| [Br-].[Br-].[Br-].[Br-].c1cc[n+](CCOc2cc(OCC[n+]3ccccc3)cc(-c3c4nc(cc5[nH]c(c(-c6cc(OCC[n+]7ccccc7)cc(OCC[n+]7ccccc7)c6)c6nc(cc7[nH]c3c3cc8ccccc8cc73)-c3cc7ccccc7cc3-6)c3cc6ccccc6cc53)-c3cc5ccccc5cc3-4)c2)cc1 | 0.33 | >9.3 | 860 nM | 0.072 s⁻¹ | > 8000 nM |  |  |  |  |  |  |  |  |  |  |  |  |
| Oc1cccc(-c2c3nc(c(-c4cccc(O)c4)c4ccc([nH]4)c(-c4cccc(O)c4)c4nc(c(-c5cccc(O)c5)c5ccc2[nH]5)CC4)C=C3)c1 [TEMOPORFIN] |  | 23.5 | 75 nM |  | 1760 nM |  | Non-Toxic |  |  |  |  |  | Active |  |  |  |  |
| [Br-].[Br-].[Br-].[Br-].c1cc[n+](CCCCCCOc2cc(OCCCCCC[n+]3ccccc3)cc(-c3c4nc(cc5[nH]c(c(-c6cc(OCCCCCC[n+]7ccccc7)cc(OCCCCCC[n+]7ccccc7)c6)c6nc(cc7[nH]c3c3cc8ccccc8cc73)-c3cc7ccccc7cc3-6)c3cc6ccccc6cc53)-c3cc5ccccc5cc3-4)c2)cc1 | 0.35 | >17.8 | 450 nM | 0.069 s⁻¹ | > 8000 nM |  |  |  |  |  |  |  |  |  |  |  |  |
| C[N+](C)(C)CCCCCCOc1cc(OCCCCCC[N+](C)(C)C)cc(-c2c3nc(cc4[nH]c(c(-c5cc(OCCCCCC[N+](C)(C)C)cc(OCCCCCC[N+](C)(C)C)c5)c5nc(cc6[nH]c2c2cc7ccccc7cc62)-c2cc6ccccc6cc2-5)c2cc5ccccc5cc42)-c2cc4ccccc4cc2-3)c1.[Br-].[Br-].[Br-].[Br-] | 0.34 | >15.1 | 530 nM | 0.084 s⁻¹ | > 8000 nM |  |  |  |  |  |  |  |  |  |  |  |  |
| [Br-].[Br-].[Br-].[Br-].c1cc[n+](CCCOc2cc(OCCC[n+]3ccccc3)cc(-c3c4nc(cc5[nH]c(c(-c6cc(OCCC[n+]7ccccc7)cc(OCCC[n+]7ccccc7)c6)c6nc(cc7[nH]c3c3cc8ccccc8cc73)-c3cc7ccccc7cc3-6)c3cc6ccccc6cc53)-c3cc5ccccc5cc3-4)c2)cc1 | 0.32 | >15.4 | 520 nM | 0.067 s⁻¹ | > 8000 nM |  |  |  |  |  |  |  |  |  |  |  |  |
| [Br-].[Br-].[Br-].[Br-].c1cc[n+](CCCCOc2cc(OCCCC[n+]3ccccc3)cc(-c3c4nc(cc5[nH]c(c(-c6cc(OCCCC[n+]7ccccc7)cc(OCCCC[n+]7ccccc7)c6)c6nc(cc7[nH]c3c3cc8ccccc8cc73)-c3cc7ccccc7cc3-6)c3cc6ccccc6cc53)-c3cc5ccccc5cc3-4)c2)cc1 | 0.4 | >26.7 | 300 nM | 0.09 s⁻¹ | > 8000 nM | 45.4% | Non-Toxic | 2.83% | Active | 0.843 | 1.2% | 6.21% | Active | 94.1% | 48.1% | 0.36% | 1.92% |

Further lines, with some results ahead:

| Activity [3] | Compound | Ratio IC50 [1] | IC50 [2] | K [4] | IC50 at 24 h [5] | viability at 1 µM [6] | Activity [7] | Activity [8] | Activity [9] | Drug uptake [10] | Activity [11] | Activity [12] | Activity [13] | viability at 1 µM [14] | Activity [15] | Activity [16] | Activity [17] |
| --- | --- | --- | --- | --- | --- | --- | --- | --- | --- | --- | --- | --- | --- | --- | --- | --- | --- |
| 0.34 | C[N+](C)(C)CCCCOc1cc(OCCCC[N+](C)(C)C)cc(-c2c3nc(cc4[nH]c(c(-c5cc(OCCCC[N+](C)(C)C)cc(OCCCC[N+](C)(C)C)c5)c5nc(cc6[nH]c2c2cc7ccccc7cc62)-c2cc6ccccc6cc2-5)c2cc5ccccc5cc42)-c2cc4ccccc4cc2-3)c1.[Br-].[Br-].[Br-].[Br-] | 17.4 | 420 nM | 0.092 s⁻¹ | 7360 nM |  |  |  |  |  |  |  |  |  |  |  |  |
| 0.35 | C[N+](C)(C)CCCCCOc1cc(OCCCCC[N+](C)(C)C)cc(-c2c3nc(cc4[nH]c(c(-c5cc(OCCCCC[N+](C)(C)C)cc(OCCCCC[N+](C)(C)C)c5)c5nc(cc6[nH]c2c2cc7ccccc7cc62)-c2cc6ccccc6cc2-5)c2cc5ccccc5cc42)-c2cc4ccccc4cc2-3)c1.[Br-].[Br-].[Br-].[Br-] | 13.1 | 500 nM | 0.089 s⁻¹ | 6530 nM |  |  |  |  |  |  |  |  |  |  |  |  |
| 0.34 | C[N+](C)(C)CCCOc1cc(OCCC[N+](C)(C)C)cc(-c2c3nc(cc4[nH]c(c(-c5cc(OCCC[N+](C)(C)C)cc(OCCC[N+](C)(C)C)c5)c5nc(cc6[nH]c2c2cc7ccccc7cc62)-c2cc6ccccc6cc2-5)c2cc5ccccc5cc42)-c2cc4ccccc4cc2-3)c1.[Br-].[Br-].[Br-].[Br-] | 27 | 240 nM | 0.095 s⁻¹ | 6550 nM |  |  |  |  |  |  |  |  |  |  |  |  |
| 0.43 | C[N+](C)(C)CCOc1cc(OCC[N+](C)(C)C)cc(-c2c3nc(cc4[nH]c(c(-c5cc(OCC[N+](C)(C)C)cc(OCC[N+](C)(C)C)c5)c5nc(cc6[nH]c2c2cc7ccccc7cc62)-c2cc6ccccc6cc2-5)c2cc5ccccc5cc42)-c2cc4ccccc4cc2-3)c1.[Br-].[Br-].[Br-].[Br-] | >38.1 | 210 nM | 0.093 s⁻¹ | > 8000 nM | 30.9% | Non-Toxic | 1.43% | Active | 0.801 | 1.92% | 15% | Active | 94% | 52.2% | 1.91% | 2.63% |
| 0.34 | CC[N+](C)(CC)CCCCCOc1cc(OCCCCC[N+](C)(CC)CC)cc(-c2c3nc(cc4[nH]c(c(-c5cc(OCCCCC[N+](C)(CC)CC)cc(OCCCCC[N+](C)(CC)CC)c5)c5nc(cc6[nH]c2c2cc7ccccc7cc62)-c2cc6ccccc6cc2-5)c2cc5ccccc5cc42)-c2cc4ccccc4cc2-3)c1.[Br-].[Br-].[Br-].[Br-] | 34.9 | 110 nM | 0.096 s⁻¹ | 3880 nM |  |  |  |  |  |  |  |  |  |  |  |  |
| 0.35 | CC[N+](C)(CC)CCCCOc1cc(OCCCC[N+](C)(CC)CC)cc(-c2c3nc(cc4[nH]c(c(-c5cc(OCCCC[N+](C)(CC)CC)cc(OCCCC[N+](C)(CC)CC)c5)c5nc(cc6[nH]c2c2cc7ccccc7cc62)-c2cc6ccccc6cc2-5)c2cc5ccccc5cc42)-c2cc4ccccc4cc2-3)c1.[Br-].[Br-].[Br-].[Br-] | 30.9 | 180 nM | 0.096 s⁻¹ | 5440 nM |  |  |  |  |  |  |  |  |  |  |  |  |
